The subject of one data set is Aspergillus flavus. The data set can be described thus: Agar plate disc-diffusion, antifungal activity by inhibition zone. The class given is cell-based. The method, then: (§1) The agar plate disc-diffusion method was applied. […] The discs were then placed onto the surface of agar plates (nutrient agar for bacteria and Sabouraud's dextrose agar for fungi) seeded with the test organism. Each plate contained 15 ml of the agar medium, previously seeded with 0.2 mL of the broth culture of each organism pregrown for 18 hours. The plates were incubated at 37° C. for 48 hours and 72 hours for fungi. The inhibition zones were measured in mm. Discs impregnated with DMSO were used as a control, and their inhibition zone was subtracted from the tested compound's actual inhibition zone.
(§2) The results of the antimicrobial testing can be observed in Tables 1 and 2, below, with ciprofloxacin serving as a reference.
(A growth-free zone around the sample is the usual read-out of agar diffusion tests.)

Data set [1] concerns Chrysosporium keratinophilum. Described as above. The class given is cell-based. The procedure:
as §1, §2

The subject of another data set is Pseudomonas aeruginosa. The data set can be described thus: Agar plate disc-diffusion, antibacterial activity by inhibition zone. The class given is cell-based. The note with it: Pseudomonas aeruginosa (Gram negative). The procedure: as §1, §2
A further data set deals with Bacillus Cereus. Described as above. It counts as cell-based. The note with it: Bacillus Cereus (Gram positive). The method, then:
as §1, §2

In another data set the test system is Staphylococcus aureus. The description is as above. The class given is cell-based. The note with it: Staphylococcus aureus (Gram positive). The procedure: as §1, §2
For a further data set, the system named is Escherichia coli. The description is as above. It counts as cell-based. The note with it: Escherichia coli (Gram negative). The procedure: as §1, §2
[2] abbreviates: A = concentration of comp. = 10,000 μL.
The mark [3] stands for this setting: B = concentration of comp. = 30.000 μL.
Setting [4] is: C = concentration of comp. = 50,000 μL.

This passage reports inhibition zone and melting point results from patent publication US11958826B1, “6′-(2-chlorophenyl)-2′-ethoxy-3,4′-bipyridine-3′- carbonitrile as an antimicrobial compound” (KING FAISAL UNIVERSITY, priority 2023, dated 2024).

`CCOc1nc(-c2ccccc2Cl)cc(-c2cccnc2)c1C#N` [Compound 4, 6′-(2-chlorophenyl)-2′-ethoxy-3,4′-bipyridine-3′-carbonitrile]: the melting point (as a rule, the temperature of the solid-liquid transition) lay in the range of 156 to 158 °C. In addition, the inhibition zone with Aspergillus flavus (setting [2]) is 20 mm. In the data set on Aspergillus flavus (setting [3]), this molecule displayed an inhibition zone of 24 mm. The same molecule showed an inhibition zone in the data set on Aspergillus flavus (setting [4]) of 35 mm. The molecule further displayed an inhibition zone in data set [1] (setting [2]) of 25 mm. The molecule further gave an inhibition zone in data set [1] (setting [3]) of 27 mm. Also, the inhibition zone in data set [1] (setting [4]) is listed as 44 mm. The same molecule gave an inhibition zone with Pseudomonas aeruginosa (setting [2]) of 25 mm. For the same molecule, the inhibition zone in the data set on Pseudomonas aeruginosa (setting [3]) amounted to 27 mm. In addition, the inhibition zone with Pseudomonas aeruginosa (setting [4]) turned out to be 38 mm. In the data set with Bacillus Cereus (setting [2]), this molecule yielded an inhibition zone of 25 mm. In the data set on Bacillus Cereus (setting [3]), this molecule registered an inhibition zone of 27 mm. In addition, the inhibition zone in the data set with Bacillus Cereus (setting [4]) worked out at 39 mm. For the same molecule, the inhibition zone in the data set on Staphylococcus aureus (setting [2]) is on record as 18 mm. Moreover, the inhibition zone with Staphylococcus aureus (setting [3]) is reported as 24 mm. The molecule also had an inhibition zone with Staphylococcus aureus (setting [4]) of 36 mm. The molecule further returned an inhibition zone in the data set on Escherichia coli (setting [2]) of 26 mm. For the same molecule, in the data set with Escherichia coli (setting [3]), the inhibition zone worked out at 28 mm. In the data set on Escherichia coli (setting [4]), this molecule returned an inhibition zone of 40 mm.
